From patent US10980782B2

Columns and labels:
Format in all cases: in vivo
[1] = tested on: human colorectal cancer HCT-15; experiment: Human tumor xenograft in nude mice, tumor inhibition rate, HCT-15; conditions: HCT-15 xenograft
Protocol: (§1) 1) Number of animals: there are 6 nude mice for each experimental group and positive control group; weighing: 20-21 g.
(§2) 2) Dosage and regimen of administration: the dose is described in the portion of the experimental results. The injection volume is 0.2 ml/mouse.
(§3) 3) Control groups: the negative control is the corresponding vehicle. The positive control is taxol which is a widely clinically used antitumor drug.
(§4) Under aseptic conditions, a tumor source with vigorous growth was taken to prepare a cell suspension of about 1-3×10^7/ml by a homogenization method. The suspension was injected subcutaneously into subaxillary region of nude mice at 0.2 ml/mouse. The drug was administered upon the tumor touchable. The drug was administered according to the regime. The animals in each group were sacrificed after the administration of three to four weeks. The tumors were taken and weighed, and the tumor inhibition rate was calculated according to the following formula: Tumor inhibition rate %=[(average tumor weight of the negative control group−average tumor weight of the compound administered group)/average tumor weight of the negative control group)×100%

[2] = tested on: human liver cancer Hep-G2; experiment: Human tumor xenograft in nude mice, tumor inhibition rate, Hep-G2
Protocol: as §1, §2, §3, §4

human lung cancer A549 = experiment: Human tumor xenograft in nude mice, tumor inhibition rate, A549; conditions: alone at 50 mg/kg/d, iv×3, q3d
[3] = tested on: human prostate cancer PC-3; experiment: Human tumor xenograft in nude mice, tumor inhibition rate, PC-3; conditions: PC-3 xenograft, 10 mg/kg/time, iv×7qd
Protocol: 1) Number of animals: there are 6 nude mice for each experimental group and positive control group; weighing: 20-21 g. The negative control has two groups.
as §2, §3, §4

O=c1[nH]cc(F)c(=O)[nH]1 [5 Fu, 5-fluorouracil]
tumor inhibition rate ([1]; alone at 15 mg/kg/d, iv×7, qd): 42.71%

N.N.[Cl][Pt][Cl] [DDP, Cisplatin]
tumor inhibition rate ([2]; alone at 1 mg/kg/d, iv×7, qd): 45.33%

Nc1ccn([C@@H]2O[C@H](CO)[C@@H](O)C2(F)F)c(=O)n1 [Gemcitabine]
tumor inhibition rate (human lung cancer A549): 39.23%

CC(=O)O[C@H]1C(=O)[C@@]2(C)[C@H]([C@H](OC(=O)c3ccccc3)[C@]3(O)C[C@H](OC(=O)[C@H](O)[C@@H](NC(=O)c4ccccc4)c4ccccc4)C(C)=C1C3(C)C)[C@]1(OC(C)=O)CO[C@@H]1C[C@@H]2O [taxol]
tumor inhibition rate [3]: 41.31%
tumor inhibition rate ([2]; 10 mg/kg/time, iv×7qd): 52.2%
tumor inhibition rate ([1]; 10 mg/kg/time, iv×7qd): 52.2%
